Results taken from US20070141141A1, “Pharmaceutical composition” (ASTRAZENECA AB, priority 2003, published 2007).
Blank lines part the entries; values can stand above or below the compound they belong to.

Legend:
[1] = test system: non-small-cell lung cancer; conditions: 250 mg/day, non-small-cell lung cancer patients, IDEAL 1 and 2; cited from earlier work
[2] = pKa and pH dependent aqueous solubility of the Agent; type: physicochemical
pH 6.5 dissolution test = type: physicochemical; conditions: for % Agent in solution after 5 minutes in pH 6.5 medium / % Agent in solution after 30 minutes in pH 6.5 medium / % Agent in solution after 60 minutes in pH 6.5 medium: 37° C., 500 ml, 250 mg Agent; for Mean pH of medium at 60 minutes (n = 2) / Mean pH of medium at end of experiment (n = 2): pH 6.5 dissolution test; for Mean pH of medium at end of experiment (n = 2): final pH measured after 60 minutes
Procedure: The following test measures dissolution of a composition in a pH 6.5 dissolution medium and simulates the pH environment found in the upper intestine.
The composition to be tested was placed into a 500 ml of a stirred dissolution medium at pH 6.5 at 37° C. (paddle speed 100 rpm). […] A fresh sample of dissolution medium was added after every sampling time point to maintain a constant volume of 500 ml dissolution medium throughout the test.
The vial was then rinsed with a further 50 ml of fresh dissolution medium and the washings added to the main dissolution medium to ensure complete transfer of the composition (total volume of dissolution medium=500 ml).

[3] = pH shift dissolution test (pH 1.5 to 6.5); type: physicochemical; conditions: for % Agent in Solution t = 2 mins: 2 minutes after adjustment of medium from pH 1.5 to pH 6.5, 37° C.; for % Agent in Solution t = 30 mins: 30 minutes after adjustment of medium from pH 1.5 to pH 6.5, 37° C.; for % Agent in Solution t = 60 mins: 60 minutes after adjustment of medium from pH 1.5 to pH 6.5, 37° C.; for % Agent in Solution t = 0 (˜pH 1.5): % by weight dissolved after 60 minutes in 0.07N HCl/0.2% NaCl medium, 37° C., before pH shift, >100% from HPLC experimental error; for Mean pH of medium at 60 minutes after pH adjustment (n = 2): pH shift test, 60 minutes after adjustment from pH 1.5 to pH 6.5
Procedure: The vial was then rinsed with a further 50 ml of fresh dissolution medium and the washings added to the main dissolution medium to ensure complete transfer of the composition (total volume of medium 500 ml). The Control sample was weighed into a volumetric flask and pre-dissolved in 50 ml of dissolution medium via sonication. The composition was then added to 400 ml of dissolution medium. The flask was rinsed with a further 50 ml of fresh dissolution medium and the washings added to the main dissolution medium to ensure complete transfer of the composition (total volume of medium=500 ml). After 60 minutes at 37° C. (paddle speed 100 rpm) a sample (5 ml) was taken and 5 ml of fresh medium was added to retain a constant volume of dissolution medium.
The resulting solution was then made up to 100 ml with MilliQ water.
Samples (5 ml) were then removed with a plastic syringe at 2, 5, 15, 30, 45 and 60 minutes after pH adjustment and fresh medium (pH 6.5) added to maintain a constant volume of dissolution medium. […] ODS-3^1. (with guard) • detection wavelength: 247 nm • flow rate: 0.9 ml/min • injection volume: 20 μl • retention time: approximately 6 minutes
Footnote: column ex Hichrom containing 3 μm beads.

Solubility (in words) ([2]; free-base form, above pH 7): practically insoluble
Solubility (in words) ([2]; free-base form, pH 1): soluble
Solubility: aqueous solvent required to dissolve 1 g of Agent ([2]; free-base form, pH 6): ≥ 10000 mL
pKa ([2]; two basic groups): ~5.3
% Agent in solution after 5 minutes in pH 6.5 medium (pH 6.5 dissolution test; listed as Control): 0.70%
% Agent in solution after 30 minutes in pH 6.5 medium (pH 6.5 dissolution test; listed as Control): 1.52%
% Agent in solution after 60 minutes in pH 6.5 medium (pH 6.5 dissolution test; listed as Control): 1.40%
Mean pH of medium at 60 minutes (n = 2) (pH 6.5 dissolution test; listed as Control): 6.52
Mean pH of medium at end of experiment (n = 2) (pH 6.5 dissolution test; listed as Control): 6.52
% Agent in Solution t = 2 mins ([3]; listed as Control): 6.50%
% Agent in Solution t = 30 mins ([3]; listed as Control): 3.04%
% Agent in Solution t = 60 mins ([3]; listed as Control): 2.27%
% Agent in Solution t = 0 (˜pH 1.5) ([3]; listed as Control): 102.61%
Mean pH of medium at 60 minutes after pH adjustment (n = 2) ([3]; listed as Control): 6.55
SMILES: COc1cc2ncnc(Nc3ccc(F)c(Cl)c3)c2cc1OCCCN1CCOCC1 [Agent, 4-(3′-chloro4′-fluoroanilino)-7-methoxy-6-(3-morpholinopropoxy)quinazoline]
adverse events [1]: majority of adverse events generally being mild to moderate skin and gastrointestinal disorders
response rates [1]: 11.8-18.4%

% Agent in solution after 5 minutes in pH 6.5 medium (pH 6.5 dissolution test): 3.52%
% Agent in solution after 30 minutes in pH 6.5 medium (pH 6.5 dissolution test): 1.54%
% Agent in solution after 60 minutes in pH 6.5 medium (pH 6.5 dissolution test): 1.21%
% Agent in solution after 60 minutes in pH 6.5 medium (pH 6.5 dissolution test; listed as Comparative Example 4): 1.21%
Mean pH of medium at 60 minutes (n = 2) (pH 6.5 dissolution test): 6.33
Mean pH of medium at end of experiment (n = 2) (pH 6.5 dissolution test): 6.33
% Agent in Solution t = 2 mins [3]: 19.56%
% Agent in Solution t = 30 mins [3]: 5.16%
% Agent in Solution t = 60 mins [3]: 3.30%
% Agent in Solution t = 0 (˜pH 1.5) [3]: 97.74%
Mean pH of medium at 60 minutes after pH adjustment (n = 2) [3]: 6.32
SMILES: COc1cc2ncnc(Nc3ccc(F)c(Cl)c3)c2cc1OCCCN1CCOCC1 [Comparative 4, 4-(3′-chloro4′-fluoroanilino)-7-methoxy-6-(3-morpholinopropoxy)quinazoline]
